The values below come from patent US5952320A, “Macrocyclic inhibitors of matrix metalloproteinases and TNFα secretion” (Abbott Laboratories, priority 1997, dated 1999).

By IC50 is commonly meant the concentration needed to halve the response being measured.

The structures appear in SMILES notation.

T1 sequence (P08254 100-272 limits assumed): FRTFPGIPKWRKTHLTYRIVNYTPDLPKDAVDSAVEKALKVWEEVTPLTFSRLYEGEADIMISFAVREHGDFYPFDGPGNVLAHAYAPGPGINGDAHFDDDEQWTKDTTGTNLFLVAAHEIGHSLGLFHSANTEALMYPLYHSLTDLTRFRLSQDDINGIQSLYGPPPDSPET

One assay concerns the target T1, Recombinant truncated stromelysin (human sequence) (Homo sapiens, UniProt P08254).
T1 construct: made in house; host or cells: E. coli
Briefly: Determination of Stromelysin Inhibition (cleavage of thiopeptide ester substrate, DTNB, 405 nm). Type of assay: biochemical.
Conditions: not given
The method, then:
The efficacy of the compounds of this invention as matrix metalloproteinase inhibitors was determined by measuring the inhibition of stromelysin. The inhibition of stromelysin by the compounds of this invention was determined as follows: Recombinant truncated stromelysin (human sequence) produced in E. coli was prepared by expression and purification of the protein as described by Ye et al., Biochemistry, 1992, 31, 11231-11235. The enzyme was assayed by its cleavage of the thiopeptide ester substrate Ac-Pro-Leu-Gly-[2-mercapto-4-methyl-pentanoyl]-Leu-Gly-OEt described by Weingarten and Feder, Anal. Biochem., 1985, 147, 437-440 (1985), as a substrate of vertebrate collagenase. The reported conditions were modified to allow assays to be carried out in a microtiter plate. Upon hydrolysis of the thioester bond, the released thiol group reacts rapidly with 5,5'-dithio-bis(2-nitrobenzoic acid) (DTNB), producing a yellow color which is measured by a microtiter plate reader set at 405 nm. The rates of cleavage of the substrate by stromelysin in the presence or absence of inhibitors are measured in a 30 min assay at ambient temperature. Solutions of the compounds in DMSO are prepared, and these are diluted at various concentrations into the assay buffer (50 mM MES/NaOH pH 6.5 with 10 mM CaCl2 and 0.2% Pluronic F-68), which is also used for dilution of the enzyme and substrate. The potency of the compounds [IC50 ] are calculated from the inhibition/inhibitor concentration data.
Take `CC(C)C[C@H]1C(=O)N[C@H](C(=O)O)Cc2ccc(cc2)OCCCCC[C@@H]1C(=O)NO` [Example 21]: the concentration for half-maximal inhibition (IC50) turned out to be 39 nM.
Take `COC(=O)[C@@H]1Cc2ccc(cc2)OCCCCC[C@H](C(=O)NO)[C@@H](CC(C)C)C(=O)N1` [Example 26]: the IC50 was 27 nM.
As to `Cc1ccc(CCC[C@H]2C(=O)N[C@H](C(=O)O)Cc3ccc(cc3)OCCCC[C@@H]2C(=O)NO)cc1` [Example 32], the IC50 was 6.7 nM.

Staying with this assay, now noted: Inhibitory potencies against stromelysin; 30 min assay at ambient temperature, pH 6.5; read-out: IC50.
Consider `CNC(=O)[C@@H]1Cc2ccc(cc2)OCCCC[C@H](C(=O)NO)[C@@H](CC(C)C)C(=O)N1` [8 anti], for which the concentration for half-maximal inhibition (IC50) stood at 3.9 nM.
The same measure, in the same setting: under `CNC(=O)[C@@H]1Cc2ccc(cc2)OCCCC[C@@H](C(=O)NO)[C@@H](CC(C)C)C(=O)N1` [8 syn] stands 570 nM; under `CC(C)C[C@H]1C(=O)N[C@H](C(=O)NCCc2ccc(S(N)(=O)=O)cc2)Cc2ccc(cc2)OCCCC[C@@H]1C(=O)NO` [Example 1], 6.9 nM.
In the case of `CC(C)C[C@H]1C(=O)N[C@H](C(=O)NCCc2ccccc2)Cc2ccc(cc2)OCCCC[C@@H]1C(=O)NO` [Example 2], the IC50 was determined as 7.2 nM.
Same read-out and setting: under `CC(C)C[C@H]1C(=O)N[C@H](C(=O)NC2CC2)Cc2ccc(cc2)OCCCC[C@@H]1C(=O)NO` [Example 3] stands 5.8 nM; under `CC(C)C[C@H]1C(=O)N[C@H](C(=O)Nc2ccccc2)Cc2ccc(cc2)OCCCC[C@@H]1C(=O)NO` [Example 4], 2.4 nM.
On to `CC(C)C[C@H]1C(=O)N[C@H](C(=O)N2CCOCC2)Cc2ccc(cc2)OCCCC[C@@H]1C(=O)NO` [Example 5], for which the IC50 came to 9.3 nM.
The same measure, in the same setting: as for `CC(C)C[C@H]1C(=O)N[C@H](C(=O)Nc2ccccn2)Cc2ccc(cc2)OCCCC[C@@H]1C(=O)NO` [Example 6], the figure is 2.6 nM; as for `CC(C)C[C@H]1C(=O)N[C@H](c2nc3ccccc3[nH]2)Cc2ccc(cc2)OCCCC[C@@H]1C(=O)NO` [Example 7], 3.6 nM.
`CNC(=O)[C@@H]1Cc2ccc(cc2)OCCC[C@H](C(=O)O)[C@@H](CC(C)C)C(=O)N1` [Example 9]: the half-inhibitory concentration (IC50) came to 2100 nM.
Consider `CNC(=O)[C@@H]1Cc2ccc(cc2)OCCC[C@H](C(=O)NO)[C@@H](CC(C)C)C(=O)N1` [Example 10], for which the IC50 was 7.8 nM.
Regarding `CNC(=O)[C@@H]1Cc2ccc(cc2)OCCCCC[C@H](C(=O)NO)[C@@H](CC(C)C)C(=O)N1` [Example 11], the IC50 came out at 6.1 nM.
With `CNC(=O)[C@@H]1Cc2ccc(cc2)OCCCCCC[C@H](C(=O)NO)[C@@H](CC(C)C)C(=O)N1` [Example 12], the half-maximal inhibitory concentration (IC50) is 12 nM.
Same read-out and setting: as for `CNC(=O)[C@@H]1Cc2ccc(cc2)/C=C\CCCCC(C(=O)NO)[C@@H](CC(C)C)C(=O)N1` (stereo partly shown) [Example 13], the figure is 2.4 nM.
As for `CC(C)C[C@H]1C(=O)N[C@H](C(=O)c2ccccc2)Cc2ccc(cc2)OCCCCC[C@@H]1C(=O)NO` [Example 14], the IC50 was 2.7 nM.
Consider `CC(C)C[C@H]1C(=O)N[C@H](C(=O)c2ccc[nH]2)Cc2ccc(cc2)OCCCCC[C@@H]1C(=O)NO` [Example 15], for which the IC50 was 7.2 nM.
As for `CNC(=O)[C@@H]1Cc2ccc(cc2)NC(=O)CCCC[C@H](C(=O)NO)[C@@H](CC(C)C)C(=O)N1` [Example 16], the IC50 stood at 23 nM.
In the case of `CNC(=O)[C@@H]1Cc2ccc(cc2)N(C(=O)OCc2ccccc2)CCCCC[C@H](C(=O)NO)[C@@H](CC(C)C)C(=O)N1` [Example 18], the IC50 came out at 0.61 nM.
On to `CNC(=O)[C@@H]1Cc2ccc(cc2)NCCCCC[C@H](C(=O)NO)[C@@H](CC(C)C)C(=O)N1` [Example 19], for which the IC50 came to 20 nM.
Turning to `CC(C)C[C@H]1C(=O)N[C@H](C(=O)OCc2ccccc2)Cc2ccc(cc2)OCCCCC[C@@H]1C(=O)NO` [Example 20], the IC50 came to 92 nM.
Regarding `CC(C)C[C@H]1C(=O)N[C@H](c2nc(-c3ccccc3)c[nH]2)Cc2ccc(cc2)OCCCCC[C@@H]1C(=O)NO` [Example 23], the IC50 worked out at 8.1 nM.
In the case of `CC(C)C[C@H]1C(=O)N[C@H](C(=O)N2CCC[C@H]2C(=O)OCc2ccccc2)Cc2ccc(cc2)OCCCCC[C@@H]1C(=O)NO` [Example 24], the IC50 came out at 8.9 nM.
On to `CC(C)C[C@H]1C(=O)N[C@H](C(=O)N2CCC[C@H]2C(=O)O)Cc2ccc(cc2)OCCCCC[C@@H]1C(=O)NO` [Example 25], for which the IC50 came to 44 nM.
The same measure, in the same setting: under `CNC(=O)[C@@H]1Cc2ccc(cc2)OCCCCC[C@H](C(=O)O)[C@@H](CCCc2ccc(C)cc2)C(=O)N1` [Example 30] stands 20 nM; under `CNC(=O)[C@@H]1Cc2ccc(cc2)OCCCCC[C@H](C(=O)NO)[C@@H](CCCc2ccc(C)cc2)C(=O)N1` [Example 31], 2.9 nM.
Take `CCCc1ccc(CC[C@H]2C(=O)N[C@H](C(=O)NC)Cc3ccc(cc3)OCCCC[C@@H]2C(=O)NO)cc1` [Example 34]: the half-inhibitory concentration (IC50) amounted to 1.5 nM.
For `Cc1ccc(CCC[C@H]2C(=O)N[C@H](C(=O)NCCN(C)C)Cc3ccc(cc3)OCCCC[C@@H]2C(=O)NO)cc1` [Example 38], the IC50 was 0.56 nM.
Turning to `CNC(=O)[C@H]1NC(=O)[C@H](CC(C)C)[C@@H](C(=O)NO)CCCCCOc2ccc1cc2` [Example 41], the IC50 came out at 26 nM.
